# According to US20190211020A1 (Agency for Science, Technology and Research, priority 2012, published 2019):
# Where two headings read alike, the source gives them in different places.
# Assays:
# [1] = test system: eIF4E Ser209 phosphorylation in Hela cells; assay: MNK cell-based assay (AlphaScreen SureFire, eIF4E Ser209 phosphorylation); settings: Homo sapiens, read-out: IC50 Hela
# Summary of the method: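 Hela cells (30,000/well) exposed to test compound in serum-free medium for 2 h at 37 °C, then lysed. Phospho-Ser209 eIF4E quantified by AlphaScreen SureFire; IC50 obtained by non-linear regression of signal versus log compound concentration.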
# [2] = test system: eIF4E phosphorylation in K562 cells; assay: Western blot of eIF4E phosphorylation in K562 cells; format: cell-based; settings: various concentrations, 24 h
# Experimental: K562 cell line was obtained from the ATCC, and grown in RPMI supplemented with 10% FCS, L-glutamine, and penicillin/streptomycin.
# Exponentially growing cells were plated at 2×10^5 cells/ml, and whole cell lysate processed for western blot analysis using antibodies recognizing eIF4E, phospho-eIF4E (Cell signaling Technology),
# [3] = test system: phospho-eIF4E S209 in BC-CML primary cells; assay: Immunofluorescence of phospho-eIF4E in BC-CML primary cells; format: cell-based, human; settings: 48 h
# Text: (§1) Cord Blood (CB) samples were purchased from the Singapore Cord Blood bank. CML samples were the Singapore General Hospital after signed informed consent under local IRB-approved procedures. MNCs were obtained using Ficoll separation, and CD34^+ cells selected by immunomagnetic beads (Miltenyi Biotech, Germany).
# Cells (1×10^5) were cytospun onto glass slides, fixed with 4% paraformaldehye, and stained with mouse monoclonal antibodies against activated β-catenin (clone 8E7, Millipore, UK), or rabbit monoclonal antibodies against phospho-eIF4E S209 (EP2151Y, Abcam, UK). Slides were then stained with either PE-conjugated anti-mouse or FITC-conjugated anti-rabbit antibodies. Images were obtained with the use of a fluorescence microscope (Olympus IX71S1F3) at 40× magnification.
# CD34+ BC cells = assay: Serial replating assay, CD34+ BC-CML cells; format: cell-based, human; settings: for serial replating efficiency of CD34+ BC cells compared to DMSO: increasing dose, 48 hr treatment, three replatings (>8 weeks)
# Text: as §1
# CD34-enriched CB and BC cells were thawed and allowed to recover overnight in serum-free StemPro media (Invitrogen, Carlsbad, Calif.), supplemented with human growth factors and 1× nutrient supplement (Invitrogen). Cells were then subjected to drug treatment for 48 hr, harvested, washed, and seeded in methycellulose (H4434, […] Technologies, Canada). Colonies were enumerated after 2 weeks, individually picked, and replated in fresh methylcellulose in a 96-well format, and counted at 2 weeks. Three rounds of serial replating (representing >8 weeks in culture) were performed.
# MNK1 = biological target: T1, MNK1 (Homo sapiens, UniProt Q9BUB5); assay: In vitro MNK kinase assay (Caliper LabChip mobility shift), MNK1; format: biochemical; settings: enzymatic; 1.2 mM ATP
# T1 construct: recombinant kinase domains expressed in E. coli; fused on or other part: N-terminal GST tag, removed with PreScission protease before the test
# T1 sequence (Q9BUB5 1-424 isoform Q9BUB5-2): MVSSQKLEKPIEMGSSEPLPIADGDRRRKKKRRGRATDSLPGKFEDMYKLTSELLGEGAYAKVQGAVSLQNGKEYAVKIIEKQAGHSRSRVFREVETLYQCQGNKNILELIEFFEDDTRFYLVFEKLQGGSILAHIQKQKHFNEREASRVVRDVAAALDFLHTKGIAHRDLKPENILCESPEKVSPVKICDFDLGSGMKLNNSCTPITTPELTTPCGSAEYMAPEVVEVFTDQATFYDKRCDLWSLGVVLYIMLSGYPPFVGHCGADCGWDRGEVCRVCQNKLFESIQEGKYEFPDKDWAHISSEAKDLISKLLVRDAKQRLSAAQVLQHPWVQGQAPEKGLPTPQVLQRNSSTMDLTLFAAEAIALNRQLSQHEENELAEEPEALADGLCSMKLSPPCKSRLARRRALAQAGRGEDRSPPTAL
# Experimental: (§2) MNK1 and MNK2 inhibitor activity was determined using recombinant kinase domains expressed in E. coli. MNK1 and MNK2 were expressed as GST fusion proteins and the GST tag was removed using PreScission protease. After concentration to 10-15 mg/ml the proteins were flash frozen in liquid nitrogen and stored at −80° C.
# (§3) This reaction mixture was then used immediately for the activation of the MNKs. The activation of the MNK1 was performed by incubating 5.0 μM of MNK1 with 0.3 μM of activated ERK2 and 500 μM ATP at 30° C. for 6 hours. The activation of MNK2 was performed by incubating 50 μM of MNK2 with 3.0 μM of activated ERK2 and 500 μM ATP at 30° C. for 2 hours. The activated MNKs were stored at −20° C. until required for assay.
# (§4) Kinase assays were performed on the Caliper Life Sciences (Mountain View, Calif.) Microfluidics LabChip® Platform. Enzyme activity is analyzed by ‘sipping’ reactions from a microtitre plate into LabChip. The data signature is generated by the shift in mobility of non-phosphorylated peptide substrates and phosphorylated products by electrophoresis in the chip and detected by LED induced fluorescence. […] The data is analyzed by calculating the relative heights of the substrate and product peaks and the product/(product+substrate) peak ratio is reported.
# (§5) The following buffers were used to assay kinase activity:
# (§6) Reconstitution buffer: 10 mM HEPES/NaOH pH7.5, 0.003% Brij® L23, 0.004% TWEEN® 20.
# (§7) Separation buffer: 100 mM HEPES/NaOH pH7.3, 0.02% Brij® L23, 5% DMSO, 0.1% CR3, 1 mM EDTA pH8.0.
# (§8) The reaction was stopped by the addition of […] termination buffer.
# (§9) Inhibition constants (IC50) were determined by plotting kinase activity versus log compound concentration and fitting with a non-linear regression algorithm using GraphPad Prism (GraphPad Software Inc.).
# MNK2 = biological target: T2, MNK2 (Homo sapiens, UniProt Q9HBH9); assay: In vitro MNK kinase assay (Caliper LabChip mobility shift), MNK2; format: biochemical; settings: enzymatic; 250 μM ATP
# T2 construct: GST (cleaved yes); made in house; host or cells: E. coli
# T2 sequence (Q9HBH9 84-388 limits assumed): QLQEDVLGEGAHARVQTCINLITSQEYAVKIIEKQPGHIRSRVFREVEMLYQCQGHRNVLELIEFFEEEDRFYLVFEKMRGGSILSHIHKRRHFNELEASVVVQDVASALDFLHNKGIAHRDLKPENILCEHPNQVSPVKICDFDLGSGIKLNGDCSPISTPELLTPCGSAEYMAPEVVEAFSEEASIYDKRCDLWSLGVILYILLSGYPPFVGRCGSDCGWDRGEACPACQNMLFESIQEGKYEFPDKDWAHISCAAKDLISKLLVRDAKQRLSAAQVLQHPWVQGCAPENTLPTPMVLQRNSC
# Experimental: as §2, §3, §4, §5, §6, §7, §8, §9
# [4] = test system: K562 cells (myelogenous leukemia) over-expressing eIF4E; assay: Cell cytotoxicity assay (CellTiter-Glo), K562; format: cell-based; settings: for IC50: Homo sapiens, cell viability; for change of IC50 when treatment duration was extended from 48 hours to 6 days, K562: K562 cells over-expressing eIF4E
# Experimental: (§10) Cancer cell lines, MV-4-11 (leukemia), P116.c139 (acute T cell leukemia) and D1.1 (acute T cell leukemia), were purchased from ATCC and cultured according to supplier's recommendations. K562 cells (myelogenous leukemia) over-expressing eIF4E, were also used for the cytotoxicity assay. For cells treated for 48 hours, 5000 cells were seeded in 70 μl of growth medium in black, flat-bottom 96-well plate. For cells treated for six days, 1000 cells were seeded in 70 μl of growth medium in black, flat-bottom 96-well plate. […] 50 μl of the diluted compounds was added to the cells and incubated at 37° C. in 5% CO2. After 48 hours or six days treatment, cell viability was determined by CellTiter-Glo Luminescent Cell Viability Assay (Promega, Madison, Wis.). 120 μl of the reagent was added to the cells and luminescence was measured using Tecan Safire Reader. Data was analysed with Graphpad Prism software and the figures represented indicate the half maximal inhibitory concentration (IC50). Error bars denote standard deviation (SD).
# MV-4-11 (leukemia) = assay: Cell cytotoxicity assay (CellTiter-Glo), MV-4-11; format: cell-based; settings: Homo sapiens, cell viability
# Experimental: as §10
# [5] = test system: D1.1 (acute T cell leukemia); assay: Cell cytotoxicity assay (CellTiter-Glo), D1.1; format: cell-based; settings: for IC50: T-cell, cell viability
# Experimental: as §10
# [6] = test system: P116.c139 (acute T cell leukemia); assay: Cell cytotoxicity assay (CellTiter-Glo), P116.c139; format: cell-based; settings: for IC50: T-cell, cell viability
# Experimental: as §10
# [7] = test system: eIF4E phosphorylation in BC GMPs; settings: background; cited from earlier work
# [8] = test system: active nuclear beta-catenin in BC GMPs; settings: background; cited from earlier work
# [9] = test system: CD34+BC cells (including those carrying T315I mutation); settings: background; cited from earlier work
# [10] = test system: patient-derived BC cells in NSG mice; settings: 40 mg/kg/d CGP or 5 mg/kg/d dasatinib for three weeks; read at 16 weeks; cited from earlier work
# [11] = eIF4E Ser209 phosphorylation, Hela cells, 2 hours
# [12] = K562, 144 h, 6 days, read-out: IC50 after 6 days of treatment, K562
# [13] = K562, 48 hours, read-out: IC50 after 48 hours of treatment, K562
# [14] = MV4-11, 144 h, 6 days, read-out: IC50 after 6 days of treatment, MV-4-11
# [15] = MV4-11, 48 hours, read-out: IC50 after 48 hours of treatment, MV-4-11
# [16] = 144 h, 6 days, read-out: IC50 after 6 days of treatment, D1.1
# [17] = 48 hours, read-out: IC50 after 48 hours of treatment, D1.1
# [18] = 144 h, 6 days, read-out: IC50 after 6 days of treatment, P116.c139
# [19] = 48 hours, read-out: IC50 after 48 hours of treatment, P116.c139
structure (smiles),measurement,setting,value
"CN1CCN(C(=O)c2ccc(-c3cn4c(-c5ccc(O)cc5)cnc4cn3)cc2)CC1 [Example 1, (4-(3-(4-hydroxyphenyl)imidazo[1,2-a]pyrazin-6-l)phenyl)(4-methylpiperazin-1-yl)methanone]",IC50,[1]; [11],< 1 µM
same,"eIF4E phosphorylation in K562 (BC-CML cell line), Western blot",[2],prevent eIF4E phosphorylation
same,"eIF4E phosphorylation in BC-CML primary cells, immunofluorescence",[3],prevent eIF4E phosphorylation
same,serial replating efficiency of CD34+ BC cells compared to DMSO,CD34+ BC cells,retards the serial replating efficiency
"O=C(c1ccc(-c2cn3c(-c4ccc(O)cc4)cnc3cn2)cc1)N1CCOCC1 [Example 2, (4-(3-(4-hydroxyphenyl)imidazo[1,2-a]pyrazin-6-yl)phenyl)(morpholino)methanone]",IC50,[1]; [11],< 1 µM
same,"eIF4E phosphorylation in K562 (BC-CML cell line), Western blot",[2],prevent eIF4E phosphorylation
same,"eIF4E phosphorylation in BC-CML primary cells, immunofluorescence",[3],prevent eIF4E phosphorylation
same,ability of BC cells to serial replate,CD34+ BC cells; at 10.0 μM and 20.0 μM,potently impaired the ability of BC cells to serial replate
same,serial replating efficiency of CD34+ BC cells compared to DMSO,CD34+ BC cells,retards serial replating efficiency
"CN1CCN(C(=O)c2ccc(-c3cn4c(-c5ccc(C#N)cc5)cnc4cn3)cc2)CC1 [Example 6, 4-(6-(4-(4-methylpiperazine-1-carbonyl)phenyl)imidazo[1,2-a]pyrazin-3-yl)benzonitrile]",IC50,"[1]; HeLa, 2 h",< 1 µM
same,"eIF4E phosphorylation in K562 (BC-CML cell line), Western blot",[2],prevent eIF4E phosphorylation
same,"eIF4E phosphorylation in BC-CML primary cells, immunofluorescence",[3],prevent eIF4E phosphorylation
"Cc1cc(-c2cn3c(-c4ccc(C#N)cc4)cnc3cn2)ccc1C(=O)N1CCC(N)CC1 [Example 27, 4-(6-(4-(4-aminopiperidine-1-carbonyl)-3-methylphenyl)imidazo [1,2-a]pyrazin-3-yl)benzonitrile]",IC50,MNK1,< 0.1 µM
same,IC50,MNK2,< 0.1 µM
same,IC50,[1]; [11],< 1 µM
CC(=O)NC1CCN(C(=O)c2ccc(-c3cn4c(-c5ccc(Cl)cc5)cnc4cn3)cc2)CC1 [Example 49],IC50,MNK1,< 1 µM
same,IC50,MNK2,< 1 µM
same,IC50,[1]; [11],< 1 µM
"CC(=O)Nc1cc(-c2ccc3ncc(-c4ccc(C#N)cc4)n3n2)ccc1C(=O)N1CCOCC1 [Example 80, N-(5-(3-(4-cyanophenyl)imidazo[1,2-b]pyridazin-6-yl)-2-(morpholine-4-carbonyl)phenyl)acetamide]",IC50,MNK1,< 0.1 µM
same,IC50,MNK2,< 0.1 µM
same,IC50,[1]; [11],< 1 µM
"N#Cc1ccc(-c2cnc3ccc(-c4ccc(C(=O)N5CCN(c6ccncc6)CC5)cc4)cn23)cc1 [Example 125, 4-(6-(4-(4-(pyridin-4-yl)piperazine-1-carbonyl)phenyl)imidazo[1,2-a]pyridin-3-yl)benzonitrile]",IC50,MNK1,< 0.1 µM
same,IC50,MNK2,< 0.1 µM
same,IC50,[1]; [11],< 1 µM
"CN1CCN(C2CCN(C(=O)c3ccc(-c4ccc5ncc(-c6ccc(C#N)cc6)n5c4)cc3)CC2)CC1 [Example 133, 4-(6-(4-(4-(4-methylpiperazin-1-yl)piperidine-1-carbonyl)phenyl)imidazo[1,2-a]pyridin-3-yl)benzonitrile]",IC50,[1]; [11],< 1 µM
same,IC50,[4]; [12],16 µM
same,IC50,[4]; [13],23 µM
same,"change of IC50 when treatment duration was extended from 48 hours to 6 days, K562",[4],not influenced by the treatment duration
same,IC50,MV-4-11 (leukemia); [14],1.5 µM
same,IC50,MV-4-11 (leukemia); [15],2.8 µM
same,"change of IC50 when treatment duration was extended from 48 hours to 6 days, D1.1",[5],not influenced by the treatment duration
same,IC50,[5]; [16],11.2 µM
same,IC50,[5]; [17],15.8 µM
same,"change of IC50 when treatment duration was extended from 48 hours to 6 days, P116.c139",[6],decrease the IC50 by more than half-fold
same,IC50,[6]; [18],4 µM
same,IC50,[6]; [19],10.9 µM
"CN1CCN(C(=O)c2ccc(-c3ccc4ncc(-c5ccc(O)cc5)n4c3)cc2)CC1 [Example 175, (4-(3-(4-hydroxyphenyl)imidazo[1,2-a]pyridin-6-yl)phenyl)(4-methylpiperazin-1-yl)methanone]",IC50,[4]; [12],21.2 µM
same,IC50,[4]; [13],18.2 µM
same,"change of IC50 when treatment duration was extended from 48 hours to 6 days, K562",[4],not influenced by the treatment duration
same,IC50,MV-4-11 (leukemia); [14],0.3 µM
same,IC50,MV-4-11 (leukemia); [15],0.9 µM
same,"change of IC50 when treatment duration was extended from 48 hours to 6 days, D1.1",[5],not influenced by the treatment duration
same,IC50,[5]; [16],10.1 µM
same,IC50,[5]; [17],12.3 µM
same,"change of IC50 when treatment duration was extended from 48 hours to 6 days, P116.c139",[6],decrease the IC50 by more than half-fold
same,IC50,[6]; [18],5.7 µM
same,IC50,[6]; [19],12.5 µM
Cc1nc(Nc2ncc(C(=O)Nc3c(C)cccc3Cl)s2)cc(N2CCN(CCO)CC2)n1 [dasatinib],eIF4E phosphorylation in BC GMPs,[7],not
same,accumulation of active nuclear beta-catenin in BC GMPs,[8],not
same,ability of CD34+ BC cells to serially replate for more than 8 weeks in methylcellulose,[9],only partially impaired
same,serial transplantation of BC cells in NSG mice after in vivo treatment,[10],not
Cc1ccc(NC(=O)c2ccc(CN3CCN(C)CC3)cc2)cc1Nc1nccc(-c2cccnc2)n1 [imatinib],eIF4E phosphorylation in BC GMPs,[7],not
same,accumulation of active nuclear beta-catenin in BC GMPs,[8],not
same,ability of CD34+ BC cells to serially replate for more than 8 weeks in methylcellulose,[9],only partially impaired
